Experimental data from patent US9266922B2, “Antigen peptide and uses thereof” (priority 2011, dated 2016).
Read-outs that look alike come from different tables or passages of the source. Residues, ends and D or L forms follow the SMILES beside them.

Columns and labels:
HLA-A*0201 [1] = biological target: T1, HLA-A*0201 (Homo sapiens, UniProt P04439, D140Y/D185E/D98H/E176V/E277Q/G131W/G231S/I119V/I121R/I166T/I218V/L300P/L318F/N151K/N90K/P208A/P217A/Q86G/Q94H/R138H/R169H/T345S); test: iTOPIA EDS MHC peptide binding assay; conditions: HLA-A*0201 monomer, relative to positive control peptide, 21° C. for 18 h
Description: MHC peptide binding assay using iTOPIA EDS
Microtiter 96 well plates containing HLA class I MHC monomer loaded with the human β2-microglobulin and a “placeholder” peptide were used to evaluate peptide binding, affinity, and off-rate.
The 502 nectin4 nonapeptides were first evaluated for their ability to bind to each MHC molecule in the peptide binding assay. In this assay, the placeholder peptides were stripped from the MHC class I monomer complexes coated on plastic, which leaves the MHC class I heavy chain available as a binding partner for candidate peptides in the presence of human β2-microglobulin.
Peptide binding was performed at 21° C. for 18 h. Revelation was done using an anti HLA-ABC-FITC mAb that binds to refolded MHC complex conformation. The relative fluorescent intensity was read using a fluorimeter (Molecular Devices, SpectraMax Gemini, Sunnyvale, Calif., USA).
Peptides with a binding>30% of the positive control peptide were selected as “binder” and subsequently analyzed for affinity (ED50) and off-rate (T1/2).

HLA-A*0201 [2] = biological target: T1, HLA-A*0201; test: biochemical; type: binding
HLA-A*0201 [3] = biological target: T1, HLA-A*0201; test: iScore calculation (iTOPIA system software); conditions: multiparametric score of binding, off-rate and affinity
[4] = biological target: T2, HLA A*0201 on CEM.T2 cell line (Homo sapiens, UniProt P04439, D140Y/D185E/D98H/E176V/E277Q/G131W/G231S/I119V/I121R/I166T/I218V/L300P/L318F/N151K/N90K/P208A/P217A/Q86G/Q94H/R138H/R169H/T345S); test: Cellular binding assay, HLA stabilization on CEM.T2 cells; type: cell-based; conditions: for CEM.T2 % Binding: 100 μM peptide, 37° C. for 4 h, FACS anti HLA-A2, relative to HBV positive control peptide
T2 construct: This cell line expresses HLA A*0201 but is deficient for TAP transporter; endogenous in cells; host or cells: CEM.T2 (T2) cell line
Description: The CEM.T2 cell line (T2) is defective in the processing of proteins for presentation by MHC class 1 molecules. This cell line expresses HLA A*0201 but is deficient for TAP transporter. T2 is classically used to assess the Peptide/HLA-A*0201 Complex Stability[H. W. Nijman et al., 1993]
For HLA-A2*0201 stabilization, T2 cells (2×10^5/well) were incubated in serum-free RPMI (Gibco®-France) with 100 μM of selected peptide, at 37° C. for 4 h. Cells were washed two times with PBS supplemented with 1% BSA and stained with fluorescein isothiocyanate-conjugated anti HLA-A2 (Clone BB7.2) (BD Bioscience Pharmingen-France-) at 4° C. for 45 min. After 3 washes, cells were fixed in PBS supplemented with 2% paraformaldehyde and analyzed by FACS (FACScan, BD Bioscience). The percentage of peptide binding was calculated as follows: % Binding={(MFI peptide sample−MFI Neg control)/(MFI Pos control−MFI Neg control)}×100
Negative control was done without peptide.

[5] = tested on: MDA-MB-231 breast carcinoma cell line; test: CTL cytotoxicity, 4 h 51Cr-release assay; type: cell-based, human; conditions: FIG. 4D
HLA-A*0201 [6] = biological target: T1, HLA-A*0201; test: iTOPIA EDS and […] analyses (FIG. 5B); type: binding; conditions: iTOPIA EDS and SYFPEITHI
Description: (§1) A library of 502 nonapeptides which span the entire 510 amino acid sequence of human nectin4, was synthesized (JPT Peptide Technologies GmbH, Berlin Germany). A series of 9 peptides described in the literature was selected and used as reference (Table 1). Peptides (purity >80%) were dissolved in DMSO at a concentration of 10 mM and stored at −20° C. Specific control peptides for each allele were supplied by the manufacturer of the iTOPIA Epitope Discovery System (EDS) (Beckman Coulter Inc., San Diego, Calif., USA). The 502 peptides were tested for binding to eight alleles (HLA-A*0101; HLA-A*0201; HLA-A*0301; HLA-A*1101; HLA-A*2402; […]; HLA-B*0801; HLA-B*1501) with the iTOPIA EDS.

HLA-A*2402 = HLA-A*2402 (Homo sapiens, UniProt P04439, D101N/D140Y/D185E/E176V/E190D/F33S/G103R/G107R/I119L/I121M/I306V/K335N/L105A/L180Q/L300P/N151K/N90K/Q86E/Q94H/R106L/R138H/R89G/T104I/T345S/V100E/W191G/Y123F); test: iTOPIA EDS and […] analyses (FIG. 5B); type: binding; conditions: iTOPIA EDS and SYFPEITHI
Description: as §1

HLA-B*1501 = HLA-B*1501 (Homo sapiens, UniProt P01889, A329T/A93T/A95T/C349S/D201E/D98Y/E187L/E204Q/E69M/E70A/K202T/N87E/Q94N/R155S/R180W/S121R/S35A/S48A/V306I/V36M/Y140S/Y91S); test: iTOPIA EDS and […] analyses (FIG. 5B); type: binding; conditions: iTOPIA EDS and SYFPEITHI
Description: as §1

[7] = biological target: T2, HLA A*0201 on CEM.T2 cell line; test: Cellular dissociation assay on CEM.T2 cells; type: cell-based; conditions: after Brefeldin A 1 h and 3 h in serum-free RPMI at 37° C. (4 h)
Description: Cellular Dissociation Assay
After HLA-A2*0201 stabilization with peptides at 37° C. for 4 h, T2 cells were incubated for 1 h, in serum-free RPMI containing Brefeldin A (10 μg/ml), an inhibitor of the transport of secretory and lysosomal proteins [G. J. Strous et al., 1993]. After 3 washes, T2 cells were incubated for 3 h in serum-free RPMI at 37° C. Binding was then measured by FACS and after 4 h incubation. Percentage of Residual Binding (% RB) was calculated as follows: […]

[8] = peptide concentration giving 50% of optimal binding, 10^−4 to 10^−9 M, 21° C. for 18 h, read-out: Affinity (ED50)

CC(C)C[C@H](NC(=O)[C@H](CO)NC(=O)[C@@H]1CCCN1C(=O)[C@H](CC(C)C)NC(=O)[C@@H]1CCCN1C(=O)[C@@H]1CCCN1C(=O)[C@@H](NC(=O)[C@H](CC(C)C)NC(=O)[C@@H](N)C(C)C)C(C)C)C(=O)O [Peptide 145] (H-VLVPPLPSL-OH; N-terminus and C-terminus assumed)
% Binding (HLA-A*0201 [1]): 67%
EC50 (HLA-A*0201 [2]; Affinity (ED50)): 500 nM
EC50 (HLA-A*0201 [2]; estimated dose to reach 50% maximal binding (ED50)): ~100 nM
iScore (HLA-A*0201 [3]): 0.783
HLA-A*0201 class I level on T2 cells ([4]; flow cytometry, FIG. 3A and 3B): increase the HLA-A*0201 class I level on T2 cells
lysis by peptide-specific CTL of MDA-MB-231 cell line expressing nectin4 ([5]; CTL isolated with HLA-A2/peptide tetramer, target not peptide loaded): able to kill the MDA-MB-231 cell line expressing nectin4
lysis by peptide-specific CTL of wild-type MDA-MB-231 cells ([5]; nectin4 negative HLA-A*0201 target): not the wild-type MDA-MB-231 cells
binder class for HLA-A*0201 (HLA-A*0201 [6]): strong binder
binder class for HLA-A*2402 (HLA-A*2402): strong binder
binder class for HLA-B*1501 (HLA-B*1501): strong binder

CC(C)C[C@H](NC(=O)[C@@H](N)Cc1ccccc1)C(=O)N[C@@H](C)C(=O)N[C@@H](CCC(=O)O)C(=O)N[C@@H](C)C(=O)N[C@@H](CO)C(=O)N[C@H](C(=O)N[C@@H](CCCNC(=N)N)C(=O)NCC(=O)O)C(C)C [Peptide 244] (H-FLAEASVRG-OH; N-terminus and C-terminus assumed)
% Binding (HLA-A*0201 [1]): 78%
EC50 (HLA-A*0201 [2]; [8]): 700 nM
iScore (HLA-A*0201 [3]): 0.533
CEM.T2 % Binding [4]: 12%
CEM.T2 % Residual Binding [7]: 0%

CC(C)C[C@H](NC(=O)[C@H](Cc1c[nH]cn1)NC(=O)[C@H](Cc1ccccc1)NC(=O)[C@H](CCC(=O)O)NC(=O)[C@H](CO)NC(=O)[C@@H](NC(=O)[C@@H](NC(=O)[C@H](C)N)C(C)C)[C@@H](C)O)C(=O)N[C@H](C(=O)O)C(C)C [Peptide 203] (H-AVTSEFHLV-OH; N-terminus and C-terminus assumed)
% Binding (HLA-A*0201 [1]): 64%
EC50 (HLA-A*0201 [2]; [8]): 400 nM
iScore (HLA-A*0201 [3]): 0.533
CEM.T2 % Binding [4]: 48%
CEM.T2 % Residual Binding [7]: 0%

CC[C@H](C)[C@H](NC(=O)[C@@H](N)Cc1c[nH]cn1)C(=O)N[C@@H](CC(C)C)C(=O)N[C@@H](Cc1c[nH]cn1)C(=O)N[C@H](C(=O)N[C@@H](CO)C(=O)N[C@@H](Cc1ccccc1)C(=O)N[C@@H](CC(C)C)C(=O)N[C@@H](C)C(=O)O)C(C)C [Peptide 238] (H-HILHVSFLA-OH; N-terminus and C-terminus assumed)
% Binding (HLA-A*0201 [1]): 87%
EC50 (HLA-A*0201 [2]; [8]): 60 nM
iScore (HLA-A*0201 [3]): 1.426
CEM.T2 % Binding [4]: 37%
CEM.T2 % Residual Binding [7]: 66%

CSCC[C@H](NC(=O)[C@@H](N)CO)C(=O)N[C@@H](CC(N)=O)C(=O)NCC(=O)N[C@@H](CCC(N)=O)C(=O)N1CCC[C@H]1C(=O)N[C@@H](CC(C)C)C(=O)N[C@H](C(=O)N[C@@H](CS)C(=O)O)[C@@H](C)O [Peptide 215] (H-SMNGQPLTC-OH; N-terminus and C-terminus assumed)
% Binding (HLA-A*0201 [1]): 81%
EC50 (HLA-A*0201 [2]; [8]): 700 nM
iScore (HLA-A*0201 [3]): 0.689
CEM.T2 % Binding [4]: 21%
CEM.T2 % Residual Binding [7]: 0%

CC(C)C[C@H](NC(=O)[C@@H](NC(=O)[C@H](CO)NC(=O)[C@H](Cc1ccc(O)cc1)NC(=O)[C@H](CO)NC(=O)[C@@H](N)CCCNC(=N)N)[C@@H](C)O)C(=O)N[C@H](C(=O)N[C@H](C(=O)N[C@H](C(=O)O)C(C)C)[C@@H](C)O)[C@@H](C)O [Peptide 443] (H-RSYSTLTTV-OH; N-terminus and C-terminus assumed)
% Binding (HLA-A*0201 [1]): 68%
EC50 (HLA-A*0201 [2]; [8]): 300 nM
iScore (HLA-A*0201 [3]): 0.521
CEM.T2 % Binding [4]: 37%
CEM.T2 % Residual Binding [7]: 0%

CC(C)C[C@H](NC(=O)[C@H](C)NC(=O)[C@H](C)N)C(=O)N[C@@H](CC(C)C)C(=O)N[C@@H](Cc1ccccc1)C(=O)N[C@@H](CS)C(=O)N[C@@H](CC(C)C)C(=O)N[C@@H](CC(C)C)C(=O)N[C@H](C(=O)O)C(C)C [Peptide 357] (H-AALLFCLLV-OH; N-terminus and C-terminus assumed)
% Binding (HLA-A*0201 [1]): 56%
EC50 (HLA-A*0201 [2]; [8]): 100 nM
iScore (HLA-A*0201 [3]): 0.619
CEM.T2 % Binding [4]: 15%
CEM.T2 % Residual Binding [7]: 18%

CSCC[C@H](NC(=O)[C@H](C)N)C(=O)N[C@@H](CC(C)C)C(=O)N[C@@H](CCCCN)C(=O)N[C@@H](CS)C(=O)N[C@@H](CC(C)C)C(=O)N[C@@H](CO)C(=O)N[C@@H](CCC(=O)O)C(=O)NCC(=O)O [Peptide 266] (H-AMLKCLSEG-OH; N-terminus and C-terminus assumed)
% Binding (HLA-A*0201 [1]): 74%
EC50 (HLA-A*0201 [2]; [8]): 700 nM
iScore (HLA-A*0201 [3]): 0.667
CEM.T2 % Binding [4]: 31%
CEM.T2 % Residual Binding [7]: 39%
